Results from patent US11498928B2, “Macrocyclic spiroethers as Mcl-1 inhibitors” (ASCENTAGE PHARMA (SUZHOU) CO., LTD., priority 2019, dated 2022).
Read-outs that look alike come from different tables or passages of the source.

Experiments:
[1] = amide bond, T3P, DCM, 2.0 h
[2] = Pharmacokinetic studies in mice (IV and PO); assay type: in vivo; conditions: for F: PO 10 mg/kg vs IV 2 mg/kg; for AUC(0-inf) / AUC(0-t) / clearance / half-life / Cmax / MRT last / Vd / Tmax / Vd/F: mouse, plasma; for MRT last: read-out: MRT0-last; for Vd: read-out: Vss; for Vd/F: read-out: Vz/F
Experimental: Administration: Mice in the IV group was dosed at 2 mg/kg (20% PEG 400+10% Cremophor EL+70% PBS 7.4) via tail vein injection (N=9). Mice in the PO group was dosed at 10 mg/kg (20% PEG 400+10% Cremophor EL+70% PBS 7.4) via oral gavage (N=9). All the mice were fasted overnight before dosing and had free access to food 4 hr post dosing.
Sampling: The animal was restrained manually at the designated time points (0.083, 0.25, 0.5, 1, 2, 4, 6, 8 and 24 hr), approximately 110 μL of blood sample was collected via retro-orbital puncture or cardiac puncture for terminal bleeding under the anesthesia with Isoflurane inhalation into K2EDTA tubes. The blood samples were maintained in wet ice first and centrifuged to obtain plasma (2000 g, 4° C., 5 min) within 15 minutes post sampling. All the plasma samples were stored at approximately −70° C. until analysis.

NCI-H929 cells = assay: Cell viability assay (NCI-H929 cells), CCK-8; assay type: cell-based; conditions: 5% FBS
Procedure, shortened: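 Viability of NCI-H929 cells was measured using the Cell Counting Kit-8. After 24 hrs of compound exposure, 10 μL of CCK-8 solution per well was incubated for 1-4 hours, and absorbance was read at 450 nm on a BioTek Synergy 1MF. Readings were normalized to vehicle (DMSO) cells, and IC50 values were derived by nonlinear regression in GraphPad Prism 6.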

OPM-2 cells = assay: Cell viability assay (OPM-2 cells), CCK-8; assay type: cell-based; conditions: 5% FBS
Procedure, shortened: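 Viability read by CCK-8 absorbance (450 nm, 4 h reagent incubation) after 24 h compound exposure of 20000 OPM-2 cells per well at 37 °C. IC50 fitted by nonlinear regression on vehicle-normalized signal.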

[3] = molecular target: T1, Mcl-1 protein (residues 171-323) (Homo sapiens, UniProt Q07820); assay: Inhibition of Mcl-1 by fluorescence polarization (FP) competitive binding assay with FAM-Bid tracer; conditions: 2 nM FAM-Bid, 20 nM Mcl-1, 30 min
T1 construct: Tag-free Mcl-1 protein (residues 171-323) was used in the FP assay
T1 sequence (Q07820 171-323): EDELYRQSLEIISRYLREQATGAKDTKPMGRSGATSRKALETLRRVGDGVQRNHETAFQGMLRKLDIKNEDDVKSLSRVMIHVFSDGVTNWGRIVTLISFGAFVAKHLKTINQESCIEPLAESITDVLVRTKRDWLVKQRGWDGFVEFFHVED
Procedure, shortened: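 Ten-point compound titrations compete against 2 nM fluorescein-Bid for 20 nM Mcl-1 (171-323, untagged). Incubation 30 min RT in PBS buffer with BGG and Triton, 5% DMSO final. mP reduction fitted by sigmoidal nonlinear regression for IC50.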

[4] = tested on: MV-4-11, NCI-H929 and OPM-2 xenografts; assay: In vivo xenograft studies (subcutaneous tumor models); conditions: tumor-bearing mice, as compared to AMG-176
Experimental: Female SCID mice at 4-6 weeks old were purchased from Shanghai Laboratory Animal Center (SLAC) and 1×10^7 MV-4-11 cells per mouse in 0.2 ml of PBS with 30% Matrigel were inoculated subcutaneously to the right flank of mice. Volumes of the tumor were estimated as V=LW^2/2, where L and W stand for tumor length and width. Mice with tumor at 50-150 mm^3 were randomized into treatment groups (5 mice per group) and started treatment. Compounds were administered at selected doses by p.o. or i.v. administration. The individual relative tumor volume (RTV) is calculated as following: RTV=Vt/V0, where Vt is the volume on each day of measurement and V0 is the volume on the initial day of treatment. Therapeutic effect of compound is expressed with relative tumor proliferation rate (T/C). The calculation formula is: T/C=mean RTV of the treated group/mean RTV of the control group. Treatments producing >20% lethality and/or 20% net body weight loss were considered toxic. Similar procedures were used in the for the NCI-H929 and OPM-2 xenograft experiments. See FIGS. 1, 3, 5, 7, 9, 11, and 13. Body weight changes in tumor-bearing mice were also measured. See FIGS. 2, 4, 6, 8, 10, 12, and 14.

[5] = IV 2 mg/kg, read-out: C0/Cmax (C0)
[6] = PO 10 mg/kg, read-out: C0/Cmax (Cmax)

| F [2] | AUC(0-inf) ([2]; IV 2 mg/kg) | AUC(0-t) ([2]; IV 2 mg/kg) | clearance ([2]; IV 2 mg/kg) | half-life ([2]; IV 2 mg/kg) | Cmax [2, 5] | MRT last ([2]; IV 2 mg/kg) | Vd ([2]; IV 2 mg/kg) | AUC(0-inf) ([2]; PO 10 mg/kg) | AUC(0-t) ([2]; PO 10 mg/kg) | Tmax ([2]; PO 10 mg/kg) | half-life ([2]; PO 10 mg/kg) | Cmax [2, 6] | MRT last ([2]; PO 10 mg/kg) | Vd/F ([2]; PO 10 mg/kg) | IC50 [3] | IC50 (NCI-H929 cells; Homo sapiens, NCI-H929, 24 h) | Structure (SMILES) | IC50 (OPM-2 cells; Homo sapiens, OPM-2, 24 h) | also measured |
| --- | --- | --- | --- | --- | --- | --- | --- | --- | --- | --- | --- | --- | --- | --- | --- | --- | --- | --- | --- |
|  |  |  |  |  |  |  |  |  |  |  |  |  |  |  |  |  | CC(=O)OC1C2=C[C@@H](C2)[C@H](C)[C@@H](C)S(=O)(=O)NC(=O)c2ccc3c(n2)N(C[C@@H]2CC[C@@H]12)C[C@@]1(CCCc2c1ccc(Cl)c2F)CO3 (stereo partly drawn) |  | ring closure, yield of all isomers ([1]; from CC(=O)OC(C1=C[C@H]([C@H](C)[C@@H](C)S(N)(=O)=O)C1)[C@@H]1CC[C@H]1CN1C[C@@]2(CCCc3c2ccc(Cl)c3F)COc2ccc(C(=O)O)nc21, DIPEA, DMAP, 24.6 mM): 100% |
|  |  |  |  |  |  |  |  |  |  |  |  |  |  |  |  |  | CC(=O)O[C@H]1C2=C[C@@H](C2)[C@H](C)[C@@H](C)S(=O)(=O)NC(=O)c2ccc3c(c2)N(C[C@@H]2CC[C@H]21)C[C@@]1(CCCc2c1ccc(Cl)c2F)CO3 |  | ring closure, yield of all isomers ([1]; from CC(=O)O[C@@H](C1=C[C@H]([C@H](C)[C@@H](C)S(N)(=O)=O)C1)[C@@H]1CC[C@H]1CN1C[C@@]2(CCCc3c2ccc(Cl)c3F)COc2ccc(C(=O)O)cc21, TEA, 14.5 mM): 100% |
|  |  |  |  |  |  |  |  |  |  |  |  |  |  |  |  |  | CO[C@@]1(C=O)C2=C[C@@H](C2)[C@H](C)[C@@H](C)S(=O)(=O)NC(=O)c2ccc3c(c2)N(C[C@@H]2CC[C@H]21)C[C@@]1(CCCc2c1ccc(Cl)c2F)CO3 |  | ring closure, yield of all isomers ([1]; from CO[C@@](C=O)(C1=C[C@H]([C@H](C)[C@@H](C)S(N)(=O)=O)C1)[C@@H]1CC[C@H]1CN1C[C@@]2(CCCc3c2ccc(Cl)c3F)COc2ccc(C(=O)O)cc21, DIPEA, DMAP, 6.4 mM, 0.0 °C): 89% |
|  |  |  |  |  |  |  |  |  |  |  |  |  |  |  |  |  | CO[C@H]1C2=CC(C2)[C@H](C)CS(=O)(=O)NC(=O)c2ccc3c(c2)N(C[C@@H]2CC[C@H]21)C[C@@]1(CCCc2c1ccc(Cl)c2F)CS3 (stereo partly drawn) |  | ring closure, yield of all isomers ([1]; from CO[C@@H](C1=CC([C@H](C)CS(N)(=O)=O)C1)[C@@H]1CC[C@H]1CN1C[C@@]2(CCCc3c2ccc(Cl)c3F)CSc2ccc(C(=O)O)cc21, Et3N, DMAP, 10.6 mM, 25.0 °C): 26.4% |
| 134.6% | 4720 ng·h/mL | 4690 ng·h/mL | 7.07 mL/min/kg | 3.6 h | 1510 ng/mL | 3.9 h | 1.7 L/kg | 31800 ng·h/mL | 31400 ng·h/mL | 2 h | 3.6 h | 3920 ng/mL | 5.6 h | 1.6 L/kg | 4.7 nM |  | CO[C@H]1C2=CC(C2)[C@H](C)CS(=O)(=O)NC(=O)c2ccc3c(c2)N(C[C@@H]2CC[C@H]21)C[C@@]1(CCCc2cc(Cl)ccc21)CO3 (single isomer, unassigned) [Cpd. No. 14 (Isomer 1)] |  | IC50 (NCI-H929 cells; 24 h): 26 nM; IC50 (OPM-2 cells; 24 h): 208 nM |
| 84.7% | 7870 ng·h/mL | 7580 ng·h/mL | 4.23 mL/min/kg | 4.9 h | 2740 ng/mL | 4.8 h | 1.5 L/kg | 33300 ng·h/mL | 33000 ng·h/mL | 2 h | 3.4 h | 2720 ng/mL | 6.1 h | 1.5 L/kg | 9.7 nM | 18 nM | CO[C@H]1C2=C[C@@H](C2)[C@H](C)[C@@H](C)S(=O)(=O)NC(=O)c2ccc3c(c2)N(C[C@@H]2CC[C@H]21)C[C@@]1(CCCc2cc(Cl)ccc21)CO3 (single isomer, unassigned) [Cpd. No. 15 (isomer 1)] | 84 nM |  |
| 94.1% | 8780 ng·h/mL | 8740 ng·h/mL | 3.8 mL/min/kg | 3.7 h | 5160 ng/mL | 2.7 h | 0.6 L/kg | 41300 ng·h/mL | 41200 ng·h/mL | 2 h | 2.8 h | 5260 ng/mL | 4.9 h | 9.9 L/kg | 6.6 nM | 1000 nM | CO[C@H]1C2=CC(C2)[C@H](C)[C@@H](C)S(=O)(=O)NC(=O)c2ccc3c(c2)N(C[C@@H]2CC[C@H]21)C[C@@]1(CCCc2cc(Cl)c(F)cc21)CO3 (single isomer, unassigned) [Cpd. No. 21 (isomer 1)] | 1120 nM |  |

| Structure (SMILES) | F [2] | AUC(0-inf) ([2]; IV 2 mg/kg) | AUC(0-t) ([2]; IV 2 mg/kg) | clearance ([2]; IV 2 mg/kg) | half-life ([2]; IV 2 mg/kg) | Cmax [2, 5] | MRT last ([2]; IV 2 mg/kg) | Vd ([2]; IV 2 mg/kg) | AUC(0-inf) ([2]; PO 10 mg/kg) | AUC(0-t) ([2]; PO 10 mg/kg) | Tmax ([2]; PO 10 mg/kg) | half-life ([2]; PO 10 mg/kg) | Cmax [2, 6] | MRT last ([2]; PO 10 mg/kg) | Vd/F ([2]; PO 10 mg/kg) | IC50 [3] | IC50 (NCI-H929 cells; Homo sapiens, NCI-H929, 24 h) | IC50 (OPM-2 cells; Homo sapiens, OPM-2, 24 h) | also measured |
| --- | --- | --- | --- | --- | --- | --- | --- | --- | --- | --- | --- | --- | --- | --- | --- | --- | --- | --- | --- |
| CO[C@H]1C2=C[C@@H](C2)[C@H](C)[C@@H](C)S(=O)(=O)NC(=O)c2ccc3c(c2)N(C[C@@H]2CC[C@H]21)C[C@@]1(CCCc2c1ccc(Cl)c2F)CO3 (single isomer, unassigned) [Cpd. No. 17 (isomer 1)] | 92.9% | 15200 ng·h/mL | 13900 ng·h/mL | 2.18 mL/min/kg | 7 h | 997 ng/mL | 6.7 h | 1.2 L/kg | 70700 ng·h/mL | 56000 ng·h/mL | 4 h | 10.6 h | 4350 ng/mL | 8.3 h | 2.2 L/kg | 8.1 nM | 16 nM | 62 nM | body weight change (toxicity to the animals) [4]: less body weight change; tumor growth inhibition ([4]; p.o. or i.v.): surprisingly better tumor growth inhibition |
